The structures appear in SMILES notation.

One assay concerns the target T1, PPARδ (Homo sapiens, UniProt Q03181).
T1 sequence (Q03181 171-441 limits assumed): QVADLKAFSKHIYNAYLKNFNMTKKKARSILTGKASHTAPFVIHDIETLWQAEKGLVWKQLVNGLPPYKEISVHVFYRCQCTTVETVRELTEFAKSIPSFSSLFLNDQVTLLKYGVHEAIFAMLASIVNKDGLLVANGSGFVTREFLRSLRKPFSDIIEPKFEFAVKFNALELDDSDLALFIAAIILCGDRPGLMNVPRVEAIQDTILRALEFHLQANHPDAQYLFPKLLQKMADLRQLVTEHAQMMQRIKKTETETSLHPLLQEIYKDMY
Description: Transfection Assay for PPARδ Receptors (PPAR-Gal4 receptor / Gal4-Luciferase Reporter, HEK293 cells). In kind it is cell-based. As to conditions: bracketed values. The procedure: Transfection Assay for PPARδ Receptors
HEK293 cells were grown in DMEM/F-12 Media supplemented with 10% FBS and glutamine (GIBCOBRL). The cells were co-transfected with DNA for PPAR-Gal4 receptor and Gal4-Luciferase Reporter using the DMRIE-C Reagent. On the following day, the DNA-containing medium were replaced with 5% Charcoal treated FBS growth medium. After six hours, cells were seeded in 96 well plate and incubated at 37° C. in CO2 incubator overnight. Cells were challenged by test compounds and incubated for 24 hours at 37° C. in 5% CO2 incubator. Luciferase activity was assayed using the Steady-Glo Luciferase Assay Kit from Promega. DMRIE-C Reagent was purchased from GIBCO Cat. No. 10459-014. OPTI-MEM I Reduced Serum Medium was purchased from GIBCO Cat. No. 31985. Steady-Glo Luciferase Assay Kit was obtained from Promega Part# E254B.
`CCN(C(=O)Nc1ccc(C(C)(C)C)cc1)C1CCc2cc(SC(C)(C)C(=O)O)c(OC)cc2C1` (stereo not drawn) [Example 49, 2-{6-[3-(4-tert-Butylphenyl)1-ethylureido]-3-methoxy-5,6,7,8-tetrahydronaphthalen-2-ylsulfanyl}-2-methylpropionic acid]: the EC50 was > 3 µM.

The assay is the same for the next values; noted with them: fold induction, unbracketed values; PPARδ standard FI = 36.1.
Consider `CCCCCCN(C(=O)Nc1ccc(SC(F)(F)F)cc1)C1Cc2ccc(SC(C)(C)C(=O)O)cc2C1` (stereo not drawn) [Example 15, 2-Methyl-2-{2-[1-hexyl-3-(4-trifluoromethylsulfanylphenyl)ureido]indan-5-ylsulfanyl}propionic acid], for which the “PPARδ FI” value is given as 1.2. Same read-out and setting: then `CCN(C(=O)Nc1ccc(C(C)C)cc1)C1Cc2ccc(SC(C)(C)C(=O)O)cc2C1` (stereo not drawn) [Example 6, 2-{2-[1-Ethyl-3-(4-isopropylphenyl)ureido]indan-5-ylsulfanyl}-2-methylpropionic acid], with 3.6.

As to `CC(C)(Sc1ccc2c(c1)CC(N(CCCC1CCCC1)C(=O)Nc1ccccc1)C2)C(=O)O` (stereo not drawn) [Example 37, 2-{2-[1-(3-Cyclopentylpropyl)-3-phenylureido]indan-5-ylsulfanyl}-2-methylpropionic acid], the “PPARδ FI” value is reported as 1.9.

As for `CCCN(C(=O)Nc1ccc(OC(F)(F)F)cc1)C1CCc2ccc(SC(C)(C)C(=O)O)cc2C1` (stereo not drawn) [Example 46, 2-Methyl-2-{7-[1-propyl-3-(4-trifluoromethoxyphenyl)ureido}-5,6,7,8-tetrahydronaphthalen-2-ylsulfanyl}propionic acid], the “PPARδ FI” value was determined as 6.0. Turning to `CCCCCN(C(=O)Nc1ccc2ccccc2c1)C1Cc2ccc(SC(C)(C)C(=O)O)cc2C1` (stereo not drawn) [Example 39, 2-Methyl-2-[2-(3-naphthalen-2-yl-1-pentylureido)indan-5-ylsulfanyl]propionic acid], the “PPARδ FI” value stood at 9.3.

For the molecule `CCCCCN(C(=O)Nc1ccc(SC(F)(F)F)cc1)C1Cc2ccc(SC(C)(C)C(=O)O)cc2C1` (stereo not drawn) [Example 5, 2-Methyl-2-{2-[1-pentyl-3-(4-trifluoromethylsulfanylphenyl)ureido]indan-5-ylsulfanyl}propionic acid], the “PPARδ FI” value was determined as 2.5. Same read-out and setting: the figure for `CCCN(C(=O)Nc1ccc(OC)cc1)C1Cc2ccc(SC(C)(C)C(=O)O)cc2C1` (stereo not drawn) [Example 32, 2-{2-[3-(4-Methoxyphenyl)-1-propylureido]indan-5-ylsulfanyl}-2-methylpropionic acid] is 1.5; for `CCCN(C(=O)Nc1ccc(C(F)(F)F)cc1)C1Cc2ccc(SC(C)(C)C(=O)O)cc2C1` (stereo not drawn) [Example 35, 2-Methyl-2-{2-[1-propyl-3-(4-trifluoromethylphenyl)ureido]indan-5-ylsulfanyl}-propionic acid] it is 5.6; for `CC(C)(Sc1ccc2c(c1)CC(N(CCCC1CCCC1)C(=O)Nc1ccc(OC(F)(F)F)cc1)C2)C(=O)O` (stereo not drawn) [Example 28, 2-{2-[1-(3-Cyclopentylpropyl)-3-(4-trifluoromethoxyphenyl)ureido]indan-5-ylsulfanyl}-2-methylpropionic acid] it is 8.2. On the same count and under the same terms, the figure for `CCCN(C(=O)Nc1cc(C)cc(C)c1)C1Cc2ccc(SC(C)(C)C(=O)O)cc2C1` (stereo not drawn) [Example 33, 2-{2-[3-(3,5-Dimethylphenyl)-1-propylureido]indan-5-ylsulfanyl}-2-methylpropionic acid] is 0.8; for `C=CCCCN(C(=O)Nc1ccc(OC(F)(F)F)cc1)C1Cc2ccc(SC(C)(C)C(=O)O)cc2C1` (stereo not drawn) [Example 19, 2-Methy-2-{2-[1-pent-4-enyl-3-(4-trifluoromethoxyphenyl)ureido]indan-5-ylsulfanyl}propionic acid] it is 1.4; for `CCN(C(=O)Nc1cccc(OC(F)(F)F)c1)C1Cc2ccc(SC(C)(C)C(=O)O)cc2C1` (stereo not drawn) [Example 26, 2-{2-[1-Ethyl-3-(3-trifluoromethoxyphenyl)ureido]indan-5-ylsulfanyl}-2-methylpropionic acid] it is 2.1. Same read-out and setting: then `CCN(C(=O)Nc1ccc(OC(F)(F)F)c(Br)c1)C1Cc2ccc(SC(C)(C)C(=O)O)cc2C1` (stereo not drawn) [Example 25, 2-{2-[3-(3-Bromo-4-trifluoromethoxyphenyl)-1-ethylureido]indan-5-ylsulfanyl}-2-methylpropionic acid], with 4.5.

The target in another assay is T2, PPARγ (Homo sapiens, UniProt P37231).
T2 construct: Following the challenge of the preadipocytes, cells may be lysed with lysis buffer; endogenous in cells; host or cells: preadipocytes
T2 sequence (P37231 1-505): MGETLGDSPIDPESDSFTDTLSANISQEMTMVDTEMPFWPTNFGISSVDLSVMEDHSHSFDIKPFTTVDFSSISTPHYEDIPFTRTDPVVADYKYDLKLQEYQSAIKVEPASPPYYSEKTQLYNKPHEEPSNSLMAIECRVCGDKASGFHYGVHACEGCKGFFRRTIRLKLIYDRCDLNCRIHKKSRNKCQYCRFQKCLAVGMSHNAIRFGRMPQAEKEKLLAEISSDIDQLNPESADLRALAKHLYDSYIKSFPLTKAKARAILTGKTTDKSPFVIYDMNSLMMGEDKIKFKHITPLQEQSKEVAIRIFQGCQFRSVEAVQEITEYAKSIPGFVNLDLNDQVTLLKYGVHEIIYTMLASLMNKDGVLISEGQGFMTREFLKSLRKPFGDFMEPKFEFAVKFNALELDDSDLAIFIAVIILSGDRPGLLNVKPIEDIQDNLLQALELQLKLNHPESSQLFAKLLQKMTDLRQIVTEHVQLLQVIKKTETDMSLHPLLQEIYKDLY
Description: aP2 Assay for PPAR Gamma Agonists (bDNA aP2 mRNA, preadipocytes). It is filed as cell-based. To be noted: fold induction, unbracketed values; PPARγ standard FI = 70.3. An excerpt: aP2 Assay for PPAR Gamma Agonists
The procedure is described in detail in Burris et al., Molecular Endocrinology 1999, 13:410, which is hereby incorporated by reference in its entirety, and aP2 assay results of agonist intrinsic activity may be presented as fold increase over vehicle in induction of aP2 mRNA production.
Twenty-four hours after the initial seeding of the 96-well plates by hand (around 20,000/well), the differentiation assay may be initiated. Medium may be removed and replaced with 150 μl of differentiation medium containing vehicle (DMSO) or test compounds. Cells may be returned to incubator for 24 hours culture. At the termination of the challenge, medium may be removed and 100 ul of lysis buffer may be added to initiate the bDNA aP2 mRNA assay. The branched DNA assay may be performed according to the manufacturer's protocol (Bayer Diagnostics; Emeryville, Calif.). Result may be expressed as the fold increase of aP2 mRNA production activated over vehicle controls. EC50's and Emax may be determined by non-linear regression with a sigmoidal fit curve.
Following the challenge of the preadipocytes, cells may be lysed with lysis buffer (Bayer Diagnostics) containing the aP2 oligonucleotides. After a 15 minute incubation at 53° C. or 30 minutes at 37° C. incubator, 70 ul of the lysis buffer from each well may be added to a corresponding capture well (preincubated with 70 ul of blocking buffer (Bayer Diagnostics)). The capture plate may be incubated overnight at 53° C. in a plate incubator (Bayer Diagnostics). After this incubation, the bDNA and labeled probes may be annealed as directed by the manufacturer. Following a 30-minute incubation with the luminescent alkaline phosphatase substrate, dioxitane, the luminescence may be quantitated in a Dynex MLX microtiter plate luminometer. Oligonucleotide probes designed to anneal to the aP2 mRNA and function in the bDNA mRNA detection system are designed with ProbeDesigner software (Bayer Diagnostics). This software package analyzes a target sequence of interest with a series of algorithms in order to determine which regions of the sequence can perform as locations for capture, label, or spacer probe annealing. The sequences of the oligonucleotides are as follows: […]
For the molecule `CCN(C(=O)Nc1ccc(C(C)C)cc1)C1Cc2ccc(SC(C)(C)C(=O)O)cc2C1` (stereo not drawn) [Example 6, 2-{2-[1-Ethyl-3-(4-isopropylphenyl)ureido]indan-5-ylsulfanyl}-2-methylpropionic acid], the “PPARγ FI” value stood at 1.9. The same measure, in the same setting: the figure for `CCCCCN(C(=O)Nc1ccc(-c2ccccc2)cc1)C1Cc2ccc(SC(C)(C)C(=O)O)cc2C1` (stereo not drawn) [Example 12, 2-[2-(3-Biphenyl-4-yl-1-pentylureido)indan-5-ylsulfanyl]-2-methylpropionic acid] is 11; for `CCCCCN(C(=O)Nc1ccc(SC(F)(F)F)cc1)C1Cc2ccc(SC(C)(C)C(=O)O)cc2C1` (stereo not drawn) [Example 5, 2-Methyl-2-{2-[1-pentyl-3-(4-trifluoromethylsulfanylphenyl)ureido]indan-5-ylsulfanyl}propionic acid] it is 4.0; for `CC(C)CCN(C(=O)Nc1ccc(OC(F)(F)F)cc1)C1Cc2ccc(SC(C)(C)C(=O)O)cc2C1` (stereo not drawn) [Example 20, 2-Methyl-2-{2-[1-(3-methylbutyl)-3-(4-trifluoromethoxyphenyl)ureido]indan-5-ylsulfanyl}-2-methylpropionic acid] it is 0.44. Regarding `CC(C)CCN(C(=O)Nc1ccc(C(C)C)cc1)C1Cc2ccc(SC(C)(C)C(=O)O)cc2C1` (stereo not drawn) [Example 21, 2-{2-[3-(4-Isopropylphenyl)-1-(3-methylbutyl)ureido]indan-5-ylsulfanyl}-2-methylpropionic acid], the “PPARγ FI” value was determined as 0.05. Turning to `CCCCCCN(C(=O)Nc1ccc(C(C)C)cc1)C1Cc2ccc(SC(C)(C)C(=O)O)cc2C1` (stereo not drawn) [Example 13, 2-{2-[3-(4-Isopropylphenyl)-1-hexylureido]indan-5-ylsulfanyl}-2-methylpropionic acid], the “PPARγ FI” value came out at 1.2. Still for that read-out and setting: the figure for `CCCN(C(=O)Nc1ccc(OC(F)(F)F)cc1)C1Cc2ccc(SC(C)(C)C(=O)O)cc2C1` (stereo not drawn) [Example 16, 2-Methyl-2-{2-[1-propyl-3-(4-trifluoromethoxyphenyl)ureido]indan-5-ylsulfanyl}propionic acid] is 0.37; for `CC(C)(Sc1ccc2c(c1)CC(NC(=O)Nc1ccc(OC(F)(F)F)cc1)C2)C(=O)O` (stereo not drawn) [Example 18, 2-Methyl-2-{2-[3-(4-trifluoromethoxyphenyl)ureido]indan-5-ylsulfanyl}propionic acid] it is 0.31; for `CCCCN(C(=O)Nc1ccc(SC(F)(F)F)cc1)C1Cc2ccc(SC(C)(C)C(=O)O)cc2C1` (stereo not drawn) [Example 17, 2-Methyl-2-{2-[1-butyl-3-(4-trifluoromethylsulfanylphenyl)ureido]indan-5-ylsulfanyl}propionic acid] it is 0.43. The same measure, in the same setting: the figure for `CCN(C(=O)Nc1ccc(SC(F)(F)F)cc1)C1Cc2ccc(SC(C)(C)C(=O)O)cc2C1` (stereo not drawn) [Example 4, 2-{2-[1-Ethyl-3-(4-trifluoromethylsulfanylphenyl)ureido]indan-5-ylsulfanyl}-2-methylpropionic acid] is 3.7.

Values taken from patent US20060094786A1, “Treating syndrome X with substituted tetralins and indanes” (priority 2002, published 2006).
